Residues, ends and D or L forms follow the SMILES beside them. *: point of attachment. Cbz = O=C(OCc1ccccc1)*; CH2F = FC*
What was measured:
[1] = test system: 786-0 cells
[2] = test system: VSVΔ51; type: cell-based, vesicular stomatitis virus
[3] = test system: IFN-β; type: cell-based, Human
[4] = test system: primary murine hepatocytes
[5] = test system: STAT1 and STAT2; type: cell-based, Human
[6] = test system: 786-0 cells; type: cell-based, Human
[7] = test system: MG-1; type: cell-based, Maraba virus
[8] = test system: VSVΔ51; type: cell-based, vesicular stomatitis virus; remark: listed apart in the source
[9] = test system: AAV2-Fluc; experiment: AAV2-Fluc production in HEK293 cells, functional titre assay; type: cell-based, adeno-associated virus (AAV)
[10] = test system: VSVΔ51; type: cell-based, vesicular stomatitis virus; remark: listed apart in the source
[11] = test system: 4T1 mammary carcinoma; details: mouse, in vivo
[12] = test system: VSV-wild type-FLuc; type: cell-based, vesicular stomatitis virus
[13] = test system: NF-κB; type: cell-based, Human
[14] = test system: CT26WT colon carcinoma; details: mouse, in vivo
[15] = test system: 786-0 cells; type: cell-based, Human; remark: listed apart in the source
[16] = test system: STAT1; type: cell-based, Human
[17] = test system: VSVΔ51; type: cell-based, vesicular stomatitis virus; remark: listed apart in the source
[18] = test system: various human and murine cell lines
[19] = test system: VSVΔ51; type: cell-based, vesicular stomatitis virus; remark: listed apart in the source
[20] = test system: VSVΔ51; type: cell-based, vesicular stomatitis virus; remark: listed apart in the source
[21] = test system: 786-0 cells; experiment: cells; details: Homo sapiens, 786-0, read-out: cell viability

## CCOc1cccc(F)c1C#Cc1cn([C@@H]2O[C@H](CNS(N)(=O)=O)[C@@H](O)[C@H]2O)c2ncnc(N)c12 [TAS4464]
[1]
  VSVΔ51 oncolysis (cell viability, Alamar blue): enhanced oncolysis
[2]
  VSVΔ51 infectivity (fluorescent signal, plaque assay): increased VSVΔ51 infectivity

## COC(=O)C[C@H](NC(=O)[C@H](C)NC(=O)[C@@H](NC(=O)OCc1ccccc1)C(C)C)C(=O)CF [Z-VAD-FMK] (Cbz-Val-Ala-Asp(OMe)-CH2F)
[1]
  cell viability: 71%

## Nc1ccc(SCC(=O)Nc2ccc3nc(NC(=O)c4ccc(C(F)(F)F)cc4)sc3c2)cc1 [ZM223, N-(6-(2-((4-aminophenyl)thio)acetamido)benzo[d]thiazol-2-yl)-4-(trifluoromethyl) benzamide]
[3]
  IFN-β secretion: unable to do the same
[2]
  VSVΔ51 infectivity (fluorescent signal, plaque assay): some viral sensitizing activity

## NS(=O)(=O)OC[C@@H]1C[C@H](n2ccc3c(N[C@H]4CCc5ccccc54)ncnc32)C[C@@H]1O [pevonedistat, ((1S,2S,4S)-4-(4-(((S)-2,3-dihydro-1H-inden-1-yl)amino)-7H-pyrrolo[2,3-d]pyrimidin-7-yl)-2-hydroxycyclopentyl) methyl sulfamate]
[4]
  viability, compound + VSVΔ51 vs compound only: no significant viability differences
[1]
  cell killing and apoptosis activation: increased cell killing and apoptosis activation
  lowest concentration with significant viability differences with vs without VSVΔ51: ≥ 120 nM
[5]
  downstream RNA levels of IFN-1 effectors: decreased
  total protein levels of STAT1 and STAT2: decreased
[6]
  caspase-8 activity: remained significantly increased
  cleaved caspase-3 levels: markedly higher levels
  full-length poly (ADP-ribose) polymerase (PARP) levels: decreased levels
  proportion of Annexin V-positive cells: significantly greater proportion
  time of peak caspase-8 activity: 36 hpi
[7]
  production of MG-1: facilitate production
[8]
  VSVΔ51 infection: able to increase VSVΔ51 infection
  increase in viral titer: over 15 fold
[9]; HEK293, functional titre assay
  optimal concentration for AAV2-Fluc enhancement: 200 to 400 nM
[9]; HEK293, treated 60 min post transfection, 72 h, over a range of concentrations
  enhancement of AAV2-Fluc viral signal: up to 2.6 fold
[10]
  VSVΔ51-GFP viral titer: increases
  VSVΔ51 viral titer: significantly increased
[11]
  survival: significantly prolonged survival
  tumor volumes post-treatment: significantly smaller
[12]
  production of wild-type VSV: facilitate production
[13]
  NF-κB protein expression in nuclear fractions: markedly less NF-κB protein expression
  transcription of pro-inflammatory cytokines controlled by NF-κB signaling including IFN-β: repressed transcription
[14]
  overall survival after CT26WT re-challenge: improved overall survival
  tumor volume progression after CT26WT re-challenge: suppress tumor volume progression more effectively
  tumor volumes post-treatment: significantly smaller
[15]
  STAT1 transcription factor activity predicted by TFactS: inhibited
  downregulation of promyelocytic leukemia protein (PML) gene: approximately 79 fold
  expression of genes related to the IFN-1 GO term: significantly downregulated
  genes significantly downregulated: 3,326 genes
  genes significantly upregulated (P<0.05, log 2-fold change >2): 3,038 genes
[16]
  phosphorylation levels of STAT1 and STAT2 in response to IFN-β treatment: unable to markedly influence
  protein availability of ISGF3 components including STAT1: global reduction in protein availability
  transcription of STAT1 and downstream ISGs (IRF7, MX2, IFTM1): significantly decrease
  transcription of STAT1 in the presence of exogenous IFN: inhibiting the transcription of STAT1
[17]
  viral replication: does not increase viral replication
[18]
  cytotoxicity in combination with VSVΔ51: increased cytotoxicity
[19]
  increase in VSVΔ51 viral titer: over 30 fold
[20]
  viral titer of VSVΔ51: able to increase the viral titer
[21]
  viability at 1 µM: 33%
[2]
  VSVΔ51 growth (relative titer), multi-step growth curve: robustly enhance
  VSVΔ51 infectivity (fluorescent signal, plaque assay): increased VSVΔ51 infectivity
  average plaque diameter (plaque expansion assay): significantly increased
  time of administration capable of increasing VSVΔ51 viral titer: 24 hours prior until 4 hours after infection
  viral GFP transgene expression: marked increase

From US20260015592A1, “NEDDYLATION-ACTIVATING ENZYME INHIBITORS AS VIRAL SENSITIZERS AND USES THEREOF” (priority 2022, published 2026)
